{"source": "paper PMC8329121", "about": "(Journal of Neuroimmune Pharmacology, 2021)", "key": {"[1]": {"target": "T1, WT hDAT (Homo sapiens, UniProt Q01959)", "T1 sequence (Q01959 whole entry)": "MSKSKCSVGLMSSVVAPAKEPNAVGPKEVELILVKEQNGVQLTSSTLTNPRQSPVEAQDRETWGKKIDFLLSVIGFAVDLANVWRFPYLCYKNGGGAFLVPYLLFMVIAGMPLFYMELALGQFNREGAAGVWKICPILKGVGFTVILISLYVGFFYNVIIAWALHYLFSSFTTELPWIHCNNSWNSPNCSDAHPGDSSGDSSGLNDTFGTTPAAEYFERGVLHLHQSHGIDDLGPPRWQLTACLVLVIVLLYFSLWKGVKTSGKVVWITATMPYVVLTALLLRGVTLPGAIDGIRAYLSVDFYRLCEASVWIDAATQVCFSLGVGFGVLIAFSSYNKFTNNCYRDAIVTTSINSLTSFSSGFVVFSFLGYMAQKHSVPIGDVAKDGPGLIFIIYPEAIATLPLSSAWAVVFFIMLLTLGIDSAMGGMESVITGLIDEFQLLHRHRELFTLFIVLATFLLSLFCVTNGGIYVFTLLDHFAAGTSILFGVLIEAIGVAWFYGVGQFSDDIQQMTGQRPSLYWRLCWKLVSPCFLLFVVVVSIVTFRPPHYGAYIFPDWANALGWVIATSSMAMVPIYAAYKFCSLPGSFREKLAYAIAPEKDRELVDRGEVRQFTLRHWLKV", "assay": "Kinetic analysis of [3H]DA uptake with or without 2-BP in PC12 cells", "assay_type": "cell-based", "design": "expressed in transfected cells; host or cells: PC12 cells, transient, pcDNA3.1+", "conditions": "15 µM 2-BP", "procedure": "(§1) This concentration was chosen based on previous studies as well as pilot experiments conducted to determine the optimal concentration (data not shown). […] Intact PC12 cells in 24-well plates transiently expressing WT hDAT or H547A were washed twice with 1× KRH buffer. […] Nonspecific uptake was determined in the presence of 10 µM nomifensine and desipramine. […] specific uptake, nonspecific uptake was subtracted from total uptake. To determine the effects of 2-BP exposure at the 2 h time point, the cells were incubated similarly as above, but allowed to incubate at room temperature for 2 h. After each incubation, cells were washed twice with ice-cold 1× KRH buffer to terminate the […], lysed with 500 µl 1 % SDS, and allowed to shake at room temperature for an hour. Lysates were collected into scintillation vials and radioactivity was measured via liquid scintillation as above. Radioactivity was measured the next day using a liquid scintillation counter (model Tri-Carb 2900TR; PerkinElmer Life and Analytical Sciences, Waltham, MA)."}, "[2]": {"target": "T2, hDAT H547A (Homo sapiens, UniProt Q01959, H547A)", "T2 construct": "expressed in transfected cells; host or cells: PC12 cells, transient, pcDNA3.1+", "T2 sequence (Q01959 whole entry H547A)": "as the sequence (Q01959 whole entry) above, with H547A counted along it", "assay": "Kinetic analysis of [3H]DA uptake with or without 2-BP in PC12 cells", "assay_type": "cell-based", "conditions": "15 µM 2-BP", "procedure": "as §1"}, "[3]": {"target": "T3, hDAT D206L/H547A (Homo sapiens, UniProt Q01959, D206L/H547A)", "T3 construct": "expressed in transfected cells; host or cells: PC12 cells, transient, pcDNA3.1+", "T3 sequence (Q01959 whole entry D206L/H547A)": "as the sequence (Q01959 whole entry) above, with D206L, H547A counted along it", "assay": "[3H]DA uptake kinetics and inhibition in intact PC12 cells", "assay_type": "cell-based"}, "[4]": {"target": "T3, hDAT D206L/H547A", "assay": "[3H]WIN35,428 binding in intact PC12 cells", "procedure": "(§2) For the competitive inhibition experiment, assays were performed in duplicate in a final volume of 500 µl. […] Assays were terminated by removal of reaction reagents in well and then washed three times with ice-cold assay buffer. Cells were lysed with 1 % SDS for an hour. Radioactivity was determined as described above."}, "[5]": {"target": "T4, hDAT D381L (Homo sapiens, UniProt Q01959, D381L)", "T4 construct": "expressed in transfected cells; host or cells: PC12 cells, transient, pcDNA3.1+", "T4 sequence (Q01959 whole entry D381L)": "as the sequence (Q01959 whole entry) above, with D381L counted along it", "assay": "[3H]WIN35,428 binding in intact PC12 cells", "procedure": "as §2"}, "[6]": {"target": "T5, hDAT D206L (Homo sapiens, UniProt Q01959, D206L)", "T5 construct": "expressed in transfected cells; host or cells: PC12 cells, transient, pcDNA3.1+", "T5 sequence (Q01959 whole entry D206L)": "as the sequence (Q01959 whole entry) above, with D206L counted along it", "assay": "[3H]WIN35,428 binding in intact PC12 cells", "procedure": "as §2"}, "[7]": {"target": "T6, hDAT Y88F/D206L/H547A (Homo sapiens, UniProt Q01959, D206L/H547A/Y88F)", "T6 construct": "expressed in transfected cells; host or cells: PC12 cells, transient, pcDNA3.1+", "T6 sequence (Q01959 1-620 Y88F/D206L/H547A)": "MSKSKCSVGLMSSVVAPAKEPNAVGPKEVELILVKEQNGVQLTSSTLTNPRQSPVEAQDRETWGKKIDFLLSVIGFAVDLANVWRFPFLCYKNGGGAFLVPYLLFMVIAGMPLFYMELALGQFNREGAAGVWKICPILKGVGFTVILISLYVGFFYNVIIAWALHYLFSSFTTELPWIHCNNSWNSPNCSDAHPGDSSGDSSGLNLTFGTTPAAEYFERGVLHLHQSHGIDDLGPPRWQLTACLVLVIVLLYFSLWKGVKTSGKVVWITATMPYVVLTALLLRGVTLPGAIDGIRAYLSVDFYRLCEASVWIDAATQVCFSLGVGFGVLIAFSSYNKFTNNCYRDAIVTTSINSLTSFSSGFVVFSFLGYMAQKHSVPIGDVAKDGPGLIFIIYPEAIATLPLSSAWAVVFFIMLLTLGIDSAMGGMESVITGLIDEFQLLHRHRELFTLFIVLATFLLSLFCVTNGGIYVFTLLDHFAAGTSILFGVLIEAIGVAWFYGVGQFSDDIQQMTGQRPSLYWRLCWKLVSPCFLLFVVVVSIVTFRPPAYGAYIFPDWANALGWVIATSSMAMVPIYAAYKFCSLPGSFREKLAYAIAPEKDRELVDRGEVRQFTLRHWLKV", "assay": "[3H]WIN35,428 binding in intact PC12 cells", "procedure": "as §2"}, "[8]": {"target": "T5, hDAT D206L", "assay": "[3H]DA uptake kinetics and inhibition in intact PC12 cells", "assay_type": "cell-based"}, "[9]": {"target": "T4, hDAT D381L", "assay": "[3H]DA uptake kinetics and inhibition in intact PC12 cells", "assay_type": "cell-based"}, "[10]": {"target": "T1, WT hDAT", "assay_type": "binding", "design": "expressed in transfected cells; host or cells: PC12 cells, transient, pcDNA3.1+", "conditions": "for increase in specific [3H]WIN35,428 binding: Fig. 6d; for Bmax of [3H]WIN35,428 binding: PC12 cells", "procedure": "as §2"}, "[11]": {"target": "T6, hDAT Y88F/D206L/H547A", "assay": "[3H]DA uptake kinetics and inhibition in intact PC12 cells", "assay_type": "cell-based"}, "[12]": {"target": "T1, WT hDAT", "conditions": "for Vmax of [3H]DA uptake: PC12 cells"}, "[13]": {"conditions": "ZnCl2 1, 10, 100 µM, concentration-dependent"}}, "note": "Several values for one entry are separate records, joined by “and”; a condition that tells them apart may be missing. Identical values can stand only once. Like-named read-outs stand apart in the source and are kept apart here."}
{"compound": "CCCCCCCCCCCCCCC(Br)C(=O)O", "note": "(stereo not drawn) [2-BP, 2-bromopalmitate]", "values": [{"measurement": "Vmax of [3H]DA uptake in the presence of 2-BP", "setting": "[1]; 0 h", "result": "5.36 ± 0.74", "unit": "pmol/min/10^5 cells"}, {"measurement": "Vmax of [3H]DA uptake in the presence of 2-BP", "setting": "[1]; 2 h", "result": "5.55 ± 0.92", "unit": "pmol/min/10^5 cells"}, {"measurement": "Vmax of [3H]DA uptake in the presence of 2-BP", "setting": "[2]; 0 h", "result": "6.41 ± 1.45", "unit": "pmol/min/10^5 cells"}, {"measurement": "Vmax of [3H]DA uptake in the presence of 2-BP", "setting": "[2]; 2 h", "result": "5.56 ± 1.93 pmol/min/10^5 cells and 5.66 ± 1.93 pmol/min/10^5 cells"}]}
{"compound": "[Cl-].[Cl-].[Zn+2]", "note": "[Zn^2+, ZnCl2]", "values": [{"measurement": "zinc effect on [3H]DA uptake", "setting": "[3]; [13]", "result": "decrease"}, {"measurement": "zinc-induced increase in [3H]WIN35,428 binding versus WT hDAT", "setting": "[4]; 10 and 100 µM Zn2+, Fig. 6d", "result": "attenuated"}, {"measurement": "zinc effect on specific [3H]WIN35,428 binding", "setting": "[5]; [13]", "result": "increase"}, {"measurement": "zinc effect on specific [3H]WIN35,428 binding", "setting": "[6]; [13]", "result": "increase"}, {"measurement": "zinc-induced increase in [3H]WIN35,428 binding versus WT hDAT", "setting": "[7]; 10 and 100 µM Zn2+, Fig. 6d", "result": "attenuated"}, {"measurement": "zinc effect on [3H]DA uptake", "setting": "[8]; [13]", "result": "decrease"}, {"measurement": "zinc effect on [3H]DA uptake", "setting": "[9]; [13]", "result": "decrease"}, {"measurement": "increase in specific [3H]WIN35,428 binding", "setting": "[10]; 10 µM Zn2+", "result": 39, "unit": "%"}, {"measurement": "increase in specific [3H]WIN35,428 binding", "setting": "[10]; 100 µM Zn2+", "result": 52, "unit": "%"}, {"measurement": "zinc effect on specific [3H]WIN35,428 binding", "setting": "[10]; [13]", "result": "increase"}, {"measurement": "zinc effect on [3H]DA uptake", "setting": "[11]; [13]", "result": "decrease"}]}
{"compound": "COC(=O)[C@H]1[C@@H](c2ccc(F)cc2)C[C@@H]2CC[C@H]1N2C", "note": "[[^3H]WIN35,428]", "values": [{"measurement": "Bmax of [3H]WIN35,428 binding", "setting": "[4]; PC12 cells", "result": "4.95 ± 1.28", "unit": "poml/10^5 cells"}, {"measurement": "Bmax of [3H]WIN35,428 binding", "setting": "[5]; PC12 cells", "result": "2.00 ± 0.63", "unit": "pmol/10^5 cells"}, {"measurement": "Bmax of [3H]WIN35,428 binding", "setting": "[6]; PC12 cells", "result": "2.87 ± 0.96", "unit": "pmol/10^5 cells"}, {"measurement": "Bmax of [3H]WIN35,428 binding", "setting": "[7]; PC12 cells", "result": "3.50 ± 0.47", "unit": "poml/10^5 cells"}, {"measurement": "Bmax of [3H]WIN35,428 binding", "setting": "[10]; Table 3 series", "result": "3.32 ± 0.58", "unit": "pmol/10^5 cells"}, {"measurement": "Bmax of [3H]WIN35,428 binding", "setting": "[10]; Table 4 series", "result": "2.44 ± 0.40", "unit": "poml/10^5 cells"}]}
{"compound": "NCCc1ccc(O)c(O)c1", "note": "[[^3H]DA, 3,4-ethyl-2[N-^3H]dihydroxyphenylethylamine]", "values": [{"measurement": "Km", "setting": "[8]; PC12 cells", "result": "1.66 ± 0.78", "unit": "µM"}, {"measurement": "Km", "setting": "[9]; PC12 cells", "result": "1.04 ± 0.34", "unit": "µM"}, {"measurement": "Km", "setting": "[12]; read-out: Km of [3H]DA uptake, PC12 cells, Table 2 series", "result": "0.45 ± 0.21", "unit": "µM"}]}
{"compound": "[3H]C(CN)c1ccc(O)c(O)c1", "note": "(stereo not drawn) [[^3H]DA, 3,4-ethyl-2[N-^3H]dihydroxyphenylethylamine]", "values": [{"measurement": "Vmax of [3H]DA uptake", "setting": "[3]; PC12 cells", "result": "40.82 ± 3.60", "unit": "pmol/min/10^5 cells"}, {"measurement": "Vmax of [3H]DA uptake", "setting": "[8]; PC12 cells", "result": "13.09 ± 3.55", "unit": "pmol/min/10^5 cells"}, {"measurement": "Vmax of [3H]DA uptake", "setting": "[9]; PC12 cells", "result": "4.54 ± 0.95", "unit": "pmol/min/10^5 cells"}, {"measurement": "Vmax of [3H]DA uptake", "setting": "[12]; Table 1 series (single mutants)", "result": "12.43 ± 2.50", "unit": "pmol/min/10^5 cells"}, {"measurement": "Vmax of [3H]DA uptake", "setting": "[12]; Table 2 series (double and triple mutants)", "result": "26.62 ± 3.87", "unit": "pmol/min/10^5 cells"}, {"measurement": "Vmax of [3H]DA uptake", "setting": "[11]; PC12 cells", "result": "10.78 ± 0.98", "unit": "pmol/min/10^5 cells"}]}
